Columns and labels:
[1] = molecular target: GST-fused human Keap1 (amino acid residues: 325-642) protein (Homo sapiens (Human), UniProt Q14145); assay: FP assay (in vitro): inhibition of binding between Nrf2 and Keap1 by fluorescence polarization; conditions: 20 nM GST-fused human Keap1, 10 nM FITC-labeled Nrf2 peptide, 2 hr at room temperature
Description: Experimental Example 1: FP Assay (In Vitro)
The inhibitory activity of test compounds on the binding between Nrf2 and Keap1 was determined by fluorescence polarization. A solution of 50 mM Tris-HCl pH.8.0 (NACALAI, REF: 06938-15), and 5 mM DTT (SIGMA-ALDRICH, REF: 646563-10X.5 mL) was used as a buffer solution. 8 μL of a buffer solution containing 40 nM GST-fused human Keap1 (amino acid residues: 325-642) protein (Protein tech, REF: Ag0779) was taken in a black 384-well plate (final concentration 20 nM), and 4 μL of the test compound solution prepared to each concentration in buffer solution was added thereto. A well containing a portion of the buffer solution without Keap1 was placed as a negative control. A well with no compound was used as a positive control. 40 nM of FITC-labeled Nrf2 peptide (FITC-X-LQLDEETGEFLPIQ (X=ε-Acp), Peptide Institute Inc.) was added thereto (10 nM final concentration). The wells were incubated at room temperature for 2 hr, and then fluorescence polarization was measured with a plate reader SPECTRAMAX Paradigm (Molecular devices) at excitation wavelength of 485 nm and fluorescence wavelength of 535 nm. The fluorescence polarization of the negative control was set to 100% inhibition and that of the positive control to 0% inhibition, and the inhibitory rate upon addition of the test compound was calculated using the following formula.

[2] = tested on: NQO1 activity in Hepa1c1c7 cells; assay: NAD(P)H: quinone oxidoreductase-1 (NQO1) enzyme induction assay (in vitro); type: cell-based, mouse; conditions: Mus musculus, Hepa-1c1c7, NQO1 activity upon addition of 400 nM of test compound, about 48 hr, ratio from the base without the compound
Description: Experimental Example 2: NAD(P)H: Quinone Oxidoreductase-1 (NQO1) Enzyme Induction Assay (In Vitro)
The NQO1 assay was performed based on a previous report (Methods in Enzymology 2004; 382: 243-258). Hepa1c1c7 cells (mouse hepatocyte cell line, ATCC, cat. no. CRL-2026) were cultured in D-MEM medium containing 10% FBS and 1% penicillin/streptomycin (5% CO2, 37° C.), and seeded into 96-well plates (Corning REF. 353072) at 1×10^4 cells/well. A portion of the wells were prepared with medium only for background measurement without seeding cells. The next day, 400 nM of the test compound (0.004% of the final concentration in DMSO) dissolved in DMSO was added thereto, and the wells were incubated for about 48 hr. A well without adding the test compound was prepared for base activity assay in part.
Cell lysate (solution containing 0.8% digitonin, 2 mM EDTA), reaction solution (solution containing 25 mM Tris-HCl, 0.07% albumin, 0.01% Tween-20, 2 U/mL glucose-6-phosphate dehydrogenase, 5 μM flavin adenine dinucleotide, 1 μM glucose-6-phosphate, 30 μM nicotinamide adenine dinucleotide phosphate, 0.03% 3-(4,5-dimethyl-2-thiazolyl)-2,5-diphenyltetrazolium bromide (MTT), and 50 μM menadione), stop solution (solution containing 0.3 mM dicoumarol and 5 mM potassium dihydrogen phosphate, pH 7.4) were prepared. After the medium was removed, 50 μL of the cell lysate was added and incubated at 37° C. for 10 minutes, followed by shaking at room temperature for 10 minutes. 200 μL of reaction solution was added thereto, and allowed to stand for 5 minutes at room temperature. 50 μL of the stop solution was added thereto, and absorbance was measured at 610 nm on a SpectraMax PLUS384 (Molecular devices) or POWERSCAN HT (DS Pharma Biomedical). The test results were analyzed in Excel, and the NQO1 activity upon addition of 400 nM of test compound was calculated as a ratio from the base without the compound.
The results of each test compound in this test are shown in the following Table 2 (A: 5<NQO1 activity ratio, B: 3<NQO1 activity ratio 5, C: 1.5<NQO1 activity ratio 3).

GST-fused human Keap1 (amino acid residues: 325-642) protein, sequence (Q14145 325-624 limits assumed): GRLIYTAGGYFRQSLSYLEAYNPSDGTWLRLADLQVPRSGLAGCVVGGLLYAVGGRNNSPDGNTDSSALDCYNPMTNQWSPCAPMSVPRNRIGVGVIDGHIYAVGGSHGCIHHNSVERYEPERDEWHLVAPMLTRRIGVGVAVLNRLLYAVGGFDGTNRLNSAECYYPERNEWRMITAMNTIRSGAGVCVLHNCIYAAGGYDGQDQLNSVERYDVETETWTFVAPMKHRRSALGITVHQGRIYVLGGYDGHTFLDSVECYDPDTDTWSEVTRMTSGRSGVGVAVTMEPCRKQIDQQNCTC

| SMILES | IC50 [1] [nM] | fold induction at 0.4 µM [2] |
| --- | --- | --- |
| CC[C@@H]1CN(Cc2cc([C@H](CC(=O)O)c3cc(OC)c4c(nnn4C)c3C)cc3ccsc23)Cc2nc(O)ccc2O1 [Example 22, (3S)-3-(7-{[(2R)-2-Ethyl-7-hydroxy-2,3-dihydropyrido[2,3-f][1,4]oxazepin-4(5H)-yl]methyl}-1-benzothiophen-5-yl)-3-(7-methoxy-1,4-dimethyl-1H-benzotriazol-5-yl)propanoic acid] | ≤ 10 | 3 to 5 |
| CC[C@@H]1CN(Cc2cc([C@@H](CC(=O)O)c3cnc4c(nnn4C)c3C)cc3ccsc23)Cc2nc(O)ccc2O1 [Example 23, (3R)-3-(3,7-Dimethyl-3H-[1,2,3]triazolo[4,5-b]pyridin-6-yl)-3-(7-{[(2R)-2-ethyl-7-hydroxy-2,3-dihydropyrido[2,3-f][1,4]oxazepin-4(5H)-yl]methyl}-1-benzothiophen-5-yl)propanoic acid] | 30 to 300 | 3 to 5 |
| CC[C@@H]1CN(Cc2cc([C@H](CC(=O)O)c3cnc4c(nnn4C)c3C)cc3ccsc23)Cc2nc(O)ccc2O1 [Example 24, (3S)-3-(3,7-Dimethyl-3H-[1,2,3]triazolo[4,5-b]pyridin-6-yl)-3-(7-{[(2R)-2-ethyl-7-hydroxy-2,3-dihydropyrido[2,3-f][1,4]oxazepin-4(5H)-yl]methyl}-1-benzothiophen-5-yl)propanoic acid] | 10 to 30 | 3 to 5 |
| CC[C@@H]1CN(Cc2cc([C@@H](CC(=O)O)c3ccc4c(nnn4CCN(C)C)c3C)cc3ccsc23)Cc2nc(O)ccc2O1 [Example 25, (3R)-3-{1-[2-(Dimethylamino)ethyl]-4-methyl-1H-benzotriazol-5-yl}-3-(7-{[(2R)-2-ethyl-7-hydroxy-2,3-dihydropyrido[2,3-f][1,4]oxazepin-4(5H)-yl]methyl}-1-benzothiophen-5-yl)propanoic acid] | 10 to 30 | > 5 |
| CC[C@@H]1CN(Cc2cc([C@H](CC(=O)O)c3ccc4c(nnn4CCN(C)C)c3C)cc3ccsc23)Cc2nc(O)ccc2O1 [Example 26, (3S)-3-{1-[2-(Dimethylamino)ethyl]-4-methyl-1H-benzotriazol-5-yl}-3-(7-{[(2R)-2-ethyl-7-hydroxy-2,3-dihydropyrido[2,3-f][1,4]oxazepin-4(5H)-yl]methyl}-1-benzothiophen-5-yl)propanoic acid] | 10 to 30 | 3 to 5 |
| CC[C@@H]1CN(Cc2cc([C@@H](CC(=O)O)c3cc(C(F)(F)F)c4c(nnn4C)c3C)cc3ccsc23)Cc2nc(O)ccc2O1 [Example 29, (3R)-3-[1,4-Dimethyl-7-(trifluoromethyl)-1H-benzotriazol-5-yl]-3-(7-{[(2R)-2-ethyl-7-hydroxy-2,3-dihydropyrido[2,3-f][1,4]oxazepin-4(5H)-yl]methyl}-1-benzothiophen-5-yl)propanoic acid] | 10 to 30 | > 5 |
| CC[C@@H]1CN(Cc2cc([C@H](CC(=O)O)c3cc(C(F)(F)F)c4c(nnn4C)c3C)cc3ccsc23)Cc2nc(O)ccc2O1 [Example 30, (3S)-3-[1,4-Dimethyl-7-(trifluoromethyl)-1H-benzotriazol-5-yl]-3-(7-{[(2R)-2-ethyl-7-hydroxy-2,3-dihydropyrido[2,3-f][1,4]oxazepin-4(5H)-yl]methyl}-1-benzothiophen-5-yl)propanoic acid] | 10 to 30 | > 5 |
| CC[C@@H]1CN(Cc2cc([C@@H](CC(=O)O)c3cc(Cl)c4c(nnn4C)c3C)cc3ccsc23)Cc2nc(O)ccc2O1 [Example 31, (3R)-3-(7-Chloro-1,4-dimethyl-1H-benzotriazol-5-yl)-3-(7-{[(2R)-2-ethyl-7-hydroxy-2,3-dihydropyrido[2,3-f][1,4]oxazepin-4(5H)-yl]methyl}-1-benzothiophen-5-yl)propanoic acid] | ≤ 10 | > 5 |
| CC[C@@H]1CN(Cc2cc([C@H](CC(=O)O)c3cc(Cl)c4c(nnn4C)c3C)cc3ccsc23)Cc2nc(O)ccc2O1 [Example 32, (3S)-3-(7-Chloro-1,4-dimethyl-1H-benzotriazol-5-yl)-3-(7-{[(2R)-2-ethyl-7-hydroxy-2,3-dihydropyrido[2,3-f][1,4]oxazepin-4(5H)-yl]methyl}-1-benzothiophen-5-yl)propanoic acid] | 10 to 30 | > 5 |
| CC[C@@H]1CN(Cc2cc([C@@H](CC(=O)O)c3cc(C#N)c4c(nnn4C)c3C)cc3ccsc23)Cc2nc(O)ccc2O1 [Example 33, (3R)-3-(7-Cyano-1,4-dimethyl-1H-benzotriazol-5-yl)-3-(7-{[(2R)-2-ethyl-7-hydroxy-2,3-dihydropyrido[2,3-f][1,4]oxazepin-4(5H)-yl]methyl}-1-benzothiophen-5-yl)propanoic acid] | 10 to 30 | > 5 |
| CC[C@@H]1CN(Cc2cc([C@H](CC(=O)O)c3cc(C#N)c4c(nnn4C)c3C)cc3ccsc23)Cc2nc(O)ccc2O1 [Example 34, (3S)-3-(7-Cyano-1,4-dimethyl-1H-benzotriazol-5-yl)-3-(7-{[(2R)-2-ethyl-7-hydroxy-2,3-dihydropyrido[2,3-f][1,4]oxazepin-4(5H)-yl]methyl}-1-benzothiophen-5-yl)propanoic acid] | 10 to 30 | 3 to 5 |
| CC[C@@H]1CN(Cc2cc([C@@H](CC(=O)O)c3cc(C4CC4)c4c(nnn4C)c3C)cc3ccsc23)Cc2nc(O)ccc2O1 [Example 35, (3R)-3-(7-Cyclopropyl-1,4-dimethyl-1H-benzotriazol-5-yl)-3-(7-{[(2R)-2-ethyl-7-hydroxy-2,3-dihydropyrido[2,3-f][1,4]oxazepin-4(5H)-yl]methyl}-1-benzothiophen-5-yl)propanoic acid] | 10 to 30 | > 5 |
| CC[C@@H]1CN(Cc2cc([C@H](CC(=O)O)c3cc(C4CC4)c4c(nnn4C)c3C)cc3ccsc23)Cc2nc(O)ccc2O1 [Example 36, (3S)-3-(7-Cyclopropyl-1,4-dimethyl-1H-benzotriazol-5-yl)-3-(7-{[(2R)-2-ethyl-7-hydroxy-2,3-dihydropyrido[2,3-f][1,4]oxazepin-4(5H)-yl]methyl}-1-benzothiophen-5-yl)propanoic acid] | 10 to 30 | > 5 |
| Cc1c([C@H](CC(=O)O)c2cc(CN3Cc4nc(O)ccc4O[C@H](C(F)(F)F)C3)c3sccc3c2)ccc2c1nnn2C [Example 37, (3R)-3-(1,4-Dimethyl-1H-benzotriazol-5-yl)-3-(7-{[(2S)-7-hydroxy-2-(trifluoromethyl)-2,3-dihydropyrido[2,3-f][1,4]oxazepin-4(5H)-yl]methyl}-1-benzothiophen-5-yl)propanoic acid] | 10 to 30 | > 5 |
| Cc1c([C@@H](CC(=O)O)c2cc(CN3Cc4nc(O)ccc4O[C@H](C(F)(F)F)C3)c3sccc3c2)ccc2c1nnn2C [Example 38, (3S)-3-(1,4-Dimethyl-1H-benzotriazol-5-yl)-3-(7-{[(2S)-7-hydroxy-2-(trifluoromethyl)-2,3-dihydropyrido[2,3-f][1,4]oxazepin-4(5H)-yl]methyl}-1-benzothiophen-5-yl)propanoic acid] | ≤ 10 | > 5 |
| Cc1c([C@H](CC(=O)O)c2cc(CN3Cc4nc(O)ccc4O[C@@H](C(F)(F)F)C3)c3sccc3c2)ccc2c1nnn2C [Example 39, (3R)-3-(1,4-Dimethyl-1H-benzotriazol-5-yl)-3-(7-{[(2R)-7-hydroxy-2-(trifluoromethyl)-2,3-dihydropyrido[2,3-f][1,4]oxazepin-4(5H)-yl]methyl}-1-benzothiophen-5-yl)propanoic acid] | 300 to 3000 | 1.5 to 3 |
